Measurements as given in patent US8940756B2, “Dihydronaphthyridines and related compounds useful as kinase inhibitors for the treatment of proliferative diseases” (Deciphera Pharmaceuticals, Inc., priority 2012, dated 2015).

Columns and labels:
[1] = biological target: Phospho-KIT (Tyr719) in GIST430 cells (Homo sapiens, UniProt P10721); assay: GIST430 KIT Western Blot; type: cell-based; settings: 4 hours, read-out: pKIT suppression by western blot analysi GIST430
[2] = tested on: GIST430 cells; assay: GIST 430 Cell Proliferation Assay; type: cell-based; settings: Homo sapiens, resazurin, 115 hours + 5 hours
Method: GIST48, GIST430, and GIST882 cells were obtained from J. Fletcher (Brigham and Women's Hospital, Boston, Mass.). GIST T1 cells were obtained from B. Rubin (Cleveland Clinic, Cleveland, Ohio) and Professor Takahiro Taguchi (Kochi Medical School, Nankoku, Kochi, Japan). Briefly, GIST48 and GIST 882 cells were grown in RPMI 1640 medium supplemented with 15% characterized fetal bovine serum (Invitrogen, Carlsbad, Calif.), 1 unit/mL penicillin G, 1 μg/ml streptomycin, and 0.29 mg/mL L-glutamine at 37° C., 5% CO2, and 95% humidity. GIST430 cells were grown in Ham's F10 medium supplemented with 15% characterized fetal bovine serum (Invitrogen, Carlsbad, Calif.), 30 mg/L bovine pituitary extract (BD Biosciences, San Jose, Calif.), 0.5% Mito+ serum extender (BD Biosciences, San Jose, Calif.), 1 unit/mL penicillin G, 1 μg/ml streptomycin, and 0.29 mg/mL L-glutamine at 37° C., 5% CO2, 95% humidity. GIST T1 cells were grown in DMEM medium supplemented with 10% characterized fetal bovine serum (Invitrogen, Carlsbad, Calif.), 1 unit/mL penicillin G, 1 ng/ml streptomycin, and 0.29 mg/mL L-glutamine at 37° C., 5% CO2, and 95% humidity.
A serial dilution of test compound was dispensed into a 384-well black clear bottom plate (Corning, Corning, N.Y.). Two thousand five-hundred cells were added per well in 50 μL complete growth medium. Plates were incubated for 115 hours at 37° C., 5% CO2, 95% humidity. At the end of the incubation period 10 μL of a 440 μM solution of resazurin (Sigma, St. Louis, Mo.) in PBS was added to each well and incubated for an additional 5 hours at 37° C., 5% CO2, 95% humidity. Plates were read on a Synergy2 reader (Biotek, Winooski, Vt.) using an excitation of 540 nm and an emission of 600 nm.

[3] = biological target: Phospho-KIT (Tyr719) in GIST48 cells (Homo sapiens, UniProt P10721); assay: GIST48 KIT Western Blot; type: cell-based; settings: 4 hours, read-out: pKIT suppression by western blot analysi GIST48
Sequence of Phospho-KIT (Tyr719) in GIST48 cells (P10721 whole entry V560D/D820A, form open): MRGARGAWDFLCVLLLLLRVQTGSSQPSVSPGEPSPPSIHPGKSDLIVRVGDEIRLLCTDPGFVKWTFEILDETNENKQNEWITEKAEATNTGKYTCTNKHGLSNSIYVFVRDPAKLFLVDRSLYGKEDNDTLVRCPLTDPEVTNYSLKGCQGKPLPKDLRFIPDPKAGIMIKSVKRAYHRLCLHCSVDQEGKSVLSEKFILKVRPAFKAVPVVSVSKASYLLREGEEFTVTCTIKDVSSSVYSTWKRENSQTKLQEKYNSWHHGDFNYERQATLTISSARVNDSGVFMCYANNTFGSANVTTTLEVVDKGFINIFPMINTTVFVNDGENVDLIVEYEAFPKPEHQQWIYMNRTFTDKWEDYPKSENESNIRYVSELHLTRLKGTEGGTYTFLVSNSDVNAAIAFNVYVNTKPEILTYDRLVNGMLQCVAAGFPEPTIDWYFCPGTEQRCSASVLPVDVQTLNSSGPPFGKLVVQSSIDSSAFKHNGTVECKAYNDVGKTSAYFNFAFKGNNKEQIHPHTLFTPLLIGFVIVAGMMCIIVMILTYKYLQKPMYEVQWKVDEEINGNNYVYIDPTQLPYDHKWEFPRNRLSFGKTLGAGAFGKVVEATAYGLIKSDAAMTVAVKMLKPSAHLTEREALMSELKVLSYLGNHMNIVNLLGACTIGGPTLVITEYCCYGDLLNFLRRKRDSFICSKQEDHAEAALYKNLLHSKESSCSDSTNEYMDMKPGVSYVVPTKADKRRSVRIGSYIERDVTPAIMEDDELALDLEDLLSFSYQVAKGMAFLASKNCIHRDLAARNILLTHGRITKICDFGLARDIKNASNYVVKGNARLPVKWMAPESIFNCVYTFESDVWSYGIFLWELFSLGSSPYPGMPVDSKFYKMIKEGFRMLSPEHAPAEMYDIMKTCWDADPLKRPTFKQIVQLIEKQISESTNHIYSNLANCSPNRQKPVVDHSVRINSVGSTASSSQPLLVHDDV

[4] = biological target: T1, c-KIT VVDV kinase (V559 and V560 deleted and D816V mutation, Seq ID no. 5) (Homo sapiens, UniProt P10721, D816V/DEL559-560); assay: cKIT-VVDV Kinase Assay; type: biochemical; settings: enzymatic assay, ATP 200 uM
T1 construct: This construct contains residues T544-V976 of cKit (except for the D816V mutation and the deletion of residues V559 and V560); GST (N); TEV cleavage site (N); purchased deCODE Biostructures
T1 sequence (P10721 with tags, fused parts or gaps DEL559-560/D816V): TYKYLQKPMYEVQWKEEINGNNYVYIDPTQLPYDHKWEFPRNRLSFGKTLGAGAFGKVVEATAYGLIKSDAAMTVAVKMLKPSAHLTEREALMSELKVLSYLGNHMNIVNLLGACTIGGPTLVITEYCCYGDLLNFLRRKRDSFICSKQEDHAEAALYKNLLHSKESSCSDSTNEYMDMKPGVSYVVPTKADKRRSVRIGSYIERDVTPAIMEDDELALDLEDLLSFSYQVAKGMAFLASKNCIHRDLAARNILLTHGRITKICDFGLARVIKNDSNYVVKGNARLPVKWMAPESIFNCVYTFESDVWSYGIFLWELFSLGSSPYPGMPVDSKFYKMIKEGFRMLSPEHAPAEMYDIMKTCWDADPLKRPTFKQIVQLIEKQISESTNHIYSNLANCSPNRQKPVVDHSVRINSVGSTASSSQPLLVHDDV
Method: In this assay, the oxidation of NADH (measured by decrease in absorbance at 340 nm) was continuously monitored spectrophotometrically. […] The inhibition reaction was started by mixing serial diluted test compound with the above reaction mixture. The absorption at 340 nm was monitored continuously for 5 hours at 30° C. on Synergy 2 plate reader (BioTech). […] The protein construct was prepared by deCODE Biostructures using procedures known in the art. This construct contains […] of cKit (except for the D816V […]), an N-terminal tag, a GST-fusion sequence and a TEV cleavage site. This construct is identical to Seq ID no. 1 except for the D816V […].

[5] = biological target: T2, c-KIT D816V kinase (Seq ID no. 4) (Homo sapiens, UniProt P10721, D816V); assay: c-KIT D816V kinase Assay; type: biochemical; settings: enzymatic assay, ATP 200 uM
T2 construct: D816V c-KIT (residues T544-V976 with N-terminal GST fusion, 16 nM); purchased deCODE Biostructures
T2 sequence (P10721 544-976 D816V): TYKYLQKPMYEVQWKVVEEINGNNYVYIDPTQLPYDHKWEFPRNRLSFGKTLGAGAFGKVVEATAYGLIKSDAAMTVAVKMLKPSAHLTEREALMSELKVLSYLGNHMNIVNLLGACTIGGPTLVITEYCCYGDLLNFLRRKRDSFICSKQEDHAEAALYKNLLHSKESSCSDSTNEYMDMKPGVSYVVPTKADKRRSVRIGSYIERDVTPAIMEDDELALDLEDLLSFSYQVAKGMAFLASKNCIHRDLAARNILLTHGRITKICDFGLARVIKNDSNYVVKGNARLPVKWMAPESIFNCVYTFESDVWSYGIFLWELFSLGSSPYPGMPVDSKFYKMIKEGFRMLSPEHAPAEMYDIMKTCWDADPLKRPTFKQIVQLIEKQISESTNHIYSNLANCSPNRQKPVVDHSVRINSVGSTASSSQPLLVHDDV
Method: (§1) In this assay, the oxidation of NADH (measured by decrease in absorbance at 340 nm) was continuously monitored spectrophotometrically. […] The inhibition reaction was started by mixing serial diluted test compound with the above reaction mixture. The absorption at 340 nm was monitored continuously for 5 hours at 30° C. on Synergy 2 plate reader (BioTech).
The protein construct was prepared by deCODE Biostructures using procedures known in the art. The construct contains residues T544-V976 of cKit, an N-terminal tag, a GST-fusion sequence and a TEV cleavage site. This construct is identical to Seq ID no. 1 except for the D816V mutation.

[6] = biological target: T3, Phospho-KIT (Tyr719) in GIST882 cells (Homo sapiens, UniProt P10721, K642E); assay: GIST882 KIT Western Blot; type: cell-based; settings: 4 hours, read-out: pKIT suppression by western blot analysi GIST 882
T3 construct: endogenous in cells; host or cells: GIST882
T3 sequence (P10721 26-976 K642E): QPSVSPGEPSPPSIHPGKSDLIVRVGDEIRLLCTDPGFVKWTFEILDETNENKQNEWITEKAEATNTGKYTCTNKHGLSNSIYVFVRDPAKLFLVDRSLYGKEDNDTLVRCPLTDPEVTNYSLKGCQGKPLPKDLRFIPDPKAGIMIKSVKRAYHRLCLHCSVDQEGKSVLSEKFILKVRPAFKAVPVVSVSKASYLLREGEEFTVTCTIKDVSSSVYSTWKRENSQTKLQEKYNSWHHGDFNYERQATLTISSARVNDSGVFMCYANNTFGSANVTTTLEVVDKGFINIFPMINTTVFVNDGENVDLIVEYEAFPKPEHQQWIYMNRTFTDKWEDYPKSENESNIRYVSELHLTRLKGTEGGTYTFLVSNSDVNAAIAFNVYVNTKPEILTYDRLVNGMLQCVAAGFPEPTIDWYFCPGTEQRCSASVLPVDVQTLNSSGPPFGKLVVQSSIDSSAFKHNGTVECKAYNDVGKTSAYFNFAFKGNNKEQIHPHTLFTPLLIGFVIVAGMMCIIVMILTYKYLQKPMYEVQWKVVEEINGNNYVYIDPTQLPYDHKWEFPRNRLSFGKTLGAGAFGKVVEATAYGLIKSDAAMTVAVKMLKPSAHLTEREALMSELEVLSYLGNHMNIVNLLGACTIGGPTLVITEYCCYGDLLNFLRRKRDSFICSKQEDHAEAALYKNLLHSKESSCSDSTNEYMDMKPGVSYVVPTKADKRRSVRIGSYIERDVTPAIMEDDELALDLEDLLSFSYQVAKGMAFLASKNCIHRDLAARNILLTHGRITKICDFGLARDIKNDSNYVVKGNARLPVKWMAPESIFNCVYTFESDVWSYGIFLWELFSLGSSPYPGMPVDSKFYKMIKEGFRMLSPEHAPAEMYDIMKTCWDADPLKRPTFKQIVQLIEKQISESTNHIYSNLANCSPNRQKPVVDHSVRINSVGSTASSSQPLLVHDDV
Method: GIST48, GIST430, and GIST882 cells were obtained from J. Fletcher (Brigham and Women's Hospital, Boston, Mass.). GIST T1 cells were obtained from B. Rubin (Cleveland Clinic, Cleveland, Ohio) and Professor Takahiro Taguchi (Kochi Medical School, Nankoku, Kochi, Japan). […] GIST430 cells were grown in Ham's F10 medium supplemented with 15% characterized fetal bovine serum (Invitrogen, Carlsbad, Calif.), 30 mg/L bovine pituitary extract (BD Biosciences, San Jose, Calif.), 0.5% Mito+ serum extender (BD Biosciences, San Jose, Calif.), 1 unit/mL penicillin G, 1 μg/ml streptomycin, and 0.29 mg/mL L-glutamine at 37° C., 5% CO2, 95% humidity. GIST T1 cells were grown in DMEM medium supplemented with 10% characterized fetal bovine serum (Invitrogen, Carlsbad, Calif.), 1 unit/mL penicillin G, 1 ng/ml streptomycin, and 0.29 mg/mL L-glutamine at 37° C., 5% CO2, and 95% humidity. Cells were allowed to expand until reaching 70-95% confluence at which point they were subcultured or harvested for assay use.
Two hundred fifty thousand cells were added per well in a 24-well tissue-culture treated plate. Cells were then incubated overnight at 37° C., 5% CO2, 95% humidity. Medium was aspirated, cells were washed with PBS, and serum-free RPMI1640 medium was added. A serial dilution of test compound was added to plates containing cells and plates were incubated for 4 hours at 37° C., 5% CO2, 95% humidity. Cells were washed with PBS, then lysed. Cell lysates were separated by SDS-PAGE and transferred to PVDF. Phospho-KIT (Tyr719) was detected using an antibody from Cell Signaling Technology (Beverly, Mass.), ECL Plus detection reagent (GE Healthcare, Piscataway, N.J.) and a Molecular Devices Storm 840 phosphorimager in fluorescence mode. Blots were stripped and probed for total KIT using an antibody from Santa Cruz Biotech (Santa Cruz, Calif.). IC50 values were calculated using Prism software (Graphpad, San Diego, Calif.).

[7] = biological target: T4, c-KIT T670I kinase (Seq ID no. 6) (Homo sapiens, UniProt P10721, T670I); assay: c-KIT T670I Kinase Assay; type: biochemical; settings: enzymatic assay, ATP 200 uM
T4 construct: GST (N); TEV cleavage site (N); purchased deCODE Biostructures
T4 sequence (P10721 544-976 T670I): as the sequence (P10721 544-976 D816V) above, with T127I, V273D counted along it
Method: (§2) In this assay, the oxidation of NADH (measured by decrease in absorbance at 340 nm) was continuously monitored spectrophotometrically. […] The inhibition reaction was started by mixing serial diluted test compound with the above reaction mixture. The absorption at 340 nm was monitored continuously for 5 hours at 30° C. on Synergy 2 plate reader (BioTech). […] The protein construct was prepared by deCODE Biostructures using procedures known in the art. The construct contains […] of cKit, an N-terminal tag, a GST-fusion sequence and a TEV cleavage site. This construct is identical to Seq ID no.

[8] = biological target: T5, c-KIT kinase (Seq ID no. 1) (Homo sapiens, UniProt P10721); assay: c-KIT Kinase Assay (pyruvate kinase/lactate dehydrogenase coupled); type: biochemical; settings: enzymatic assay, ATP 200 μM; read-out: KIT (wt)
T5 construct: GST (N); TEV cleavage site (N); purchased deCODE Biostructures
T5 sequence (P10721 with tags, fused parts or gaps): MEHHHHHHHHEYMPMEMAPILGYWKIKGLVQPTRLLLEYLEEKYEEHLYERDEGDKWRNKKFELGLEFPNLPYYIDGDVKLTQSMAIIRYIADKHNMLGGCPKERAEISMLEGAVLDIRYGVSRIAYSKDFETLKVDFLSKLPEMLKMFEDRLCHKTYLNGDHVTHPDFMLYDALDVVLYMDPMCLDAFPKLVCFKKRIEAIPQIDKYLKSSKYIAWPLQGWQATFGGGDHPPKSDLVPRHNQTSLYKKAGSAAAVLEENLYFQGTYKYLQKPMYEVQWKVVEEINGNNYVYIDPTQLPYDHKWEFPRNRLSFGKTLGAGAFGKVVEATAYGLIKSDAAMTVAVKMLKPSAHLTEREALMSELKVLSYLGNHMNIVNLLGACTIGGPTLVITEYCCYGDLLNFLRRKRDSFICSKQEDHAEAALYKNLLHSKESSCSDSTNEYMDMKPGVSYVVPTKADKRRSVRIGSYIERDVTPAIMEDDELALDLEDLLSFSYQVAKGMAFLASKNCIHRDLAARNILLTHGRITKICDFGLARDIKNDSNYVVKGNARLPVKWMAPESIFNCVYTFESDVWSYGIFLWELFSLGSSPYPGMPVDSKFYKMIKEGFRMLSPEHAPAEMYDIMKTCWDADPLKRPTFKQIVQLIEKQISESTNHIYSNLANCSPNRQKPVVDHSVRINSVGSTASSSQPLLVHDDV
Method: In this assay, the oxidation of NADH (measured by decrease in absorbance at 340 nm) was continuously monitored spectrophotometrically. […] The absorption at 340 nm was monitored continuously for 2 hours at 30° C. on Synergy 2 (BioTeK). The reaction rate was calculated using the 0 to 1 h time frame. Percent inhibition was obtained by comparison of reaction rate with that of a control (i.e. with no test compound). IC50 values were calculated from a series of percent inhibition values determined at a range of inhibitor concentrations using software routines as implemented in the GraphPad Prism software package. The protein construct was prepared by deCODE Biostructures using procedures known in the art. The construct contains […] of cKit, an N-terminal tag, a GST-fusion sequence and a TEV cleavage site.

[9] = biological target: T6, c-KIT V654A kinase (Seq ID no. 2) (Homo sapiens, UniProt P10721, V654A); assay: c-KIT V654A Kinase Assay; type: biochemical; settings: enzymatic assay, ATP 200 μM
T6 construct: V654A c-Kit (residues T544-V976 with N-terminal GST fusion, 47 nM); purchased deCODE Biostructures
T6 sequence (P10721 544-976 V654A): as the sequence (P10721 544-976 D816V) above, with V111A, V273D counted along it
Method: as §1, with “6” for “5”
The protein construct was prepared by deCODE Biostructures using procedures known in the art. The construct contains residues T544-V976 of cKit, an N-terminal tag, a GST-fusion sequence and a TEV cleavage site. This construct is identical to Seq ID no.

[10] = biological target: T7, c-KIT D816H kinase (Seq ID no. 3) (Homo sapiens, UniProt P10721, D816H); assay: c-KIT D816H Kinase Assay; type: biochemical; settings: enzymatic assay, ATP 200 μM
T7 construct: GST (N); TEV cleavage site (N); purchased deCODE Biostructures
T7 sequence (P10721 544-976 D816H): as the sequence (P10721 544-976 D816V) above, with V273H counted along it
Method: as §2, with “6” for “5”, “no. 1 except for the D816H mutation.” for “no.”

Sequence of Phospho-KIT (Tyr719) in GIST430 cells (P10721 with tags, fused parts or gaps DEL560-576/V654A, form open): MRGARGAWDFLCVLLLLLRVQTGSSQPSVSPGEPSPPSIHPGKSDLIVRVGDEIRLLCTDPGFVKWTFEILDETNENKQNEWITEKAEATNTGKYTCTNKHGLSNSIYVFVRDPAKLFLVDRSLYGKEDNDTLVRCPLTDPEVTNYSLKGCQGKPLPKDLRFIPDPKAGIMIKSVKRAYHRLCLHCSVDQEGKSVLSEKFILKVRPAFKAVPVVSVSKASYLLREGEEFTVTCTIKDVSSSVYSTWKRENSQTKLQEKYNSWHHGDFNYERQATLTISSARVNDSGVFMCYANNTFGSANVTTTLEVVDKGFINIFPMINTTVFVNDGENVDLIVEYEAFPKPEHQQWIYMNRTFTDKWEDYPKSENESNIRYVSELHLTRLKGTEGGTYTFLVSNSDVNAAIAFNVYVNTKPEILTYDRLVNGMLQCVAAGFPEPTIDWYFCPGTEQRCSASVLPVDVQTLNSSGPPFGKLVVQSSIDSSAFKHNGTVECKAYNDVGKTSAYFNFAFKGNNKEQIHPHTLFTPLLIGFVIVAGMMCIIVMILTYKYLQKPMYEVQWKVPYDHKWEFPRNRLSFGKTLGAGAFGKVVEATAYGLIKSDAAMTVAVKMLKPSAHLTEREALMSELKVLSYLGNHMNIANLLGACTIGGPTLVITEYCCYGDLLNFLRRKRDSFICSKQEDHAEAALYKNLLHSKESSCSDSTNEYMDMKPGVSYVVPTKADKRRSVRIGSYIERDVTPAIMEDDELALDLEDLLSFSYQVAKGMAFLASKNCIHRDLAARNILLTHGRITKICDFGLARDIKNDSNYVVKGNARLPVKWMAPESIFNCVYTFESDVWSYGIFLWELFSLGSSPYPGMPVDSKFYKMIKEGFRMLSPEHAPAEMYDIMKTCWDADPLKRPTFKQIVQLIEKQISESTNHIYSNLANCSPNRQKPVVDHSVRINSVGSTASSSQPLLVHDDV

Compound | IC50 [1] | IC50 [3] | IC50 [4] | IC50 [5] | IC50 [6] | IC50 [7] | IC50 [8] | IC50 [9] | IC50 [10] | IC50 [2]
CCn1c(=O)c(-c2cc(NC(=O)Nc3ccccc3)c(F)cc2Cl)cc2cnc(NC)cc21 [Example 3, 1-(4-chloro-5-(1-ethyl-7-(methylamino)-2-oxo-1,2-dihydro-1,6-naphthyridin-3-yl)-2-fluorophenyl)-3-phenylurea] | 10 to 100 nM | 100 to 1000 nM |  |  |  |  |  |  |  | 10 to 100 nM
CCn1c(=O)c(-c2cc(NC(=O)Nc3cccc(Cl)c3)c(F)cc2F)cc2cnc(NC)cc21 [Example 17, 1-(3-chlorophenyl)-3-(5-(1-ethyl-7-(methylamino)-2-oxo-1,2-dihydro-1,6-naphthyridin-3-yl)-2,4-difluorophenyl)urea] | 10 to 100 nM | 10 to 100 nM | 100 to 1000 nM | 10 to 100 nM |  |  |  |  |  | 
CCn1c(=O)c(-c2cc(NC(=O)Nc3ccccc3)c(F)cc2C)cc2cnc(NC)cc21 [Example 23, 1-(5-(1-ethyl-7-(methylamino)-2-oxo-1,2-dihydro-1,6-naphthyridin-3-yl)-2-fluoro-4-methylphenyl)-3-phenylurea] | 10 to 100 nM | 100 to 1000 nM |  |  |  |  |  |  |  | 10 to 100 nM
CCn1c(=O)c(-c2cc(NC(=O)Nc3ccccc3)c(F)cc2Br)cc2cnc(NC(C)=O)cc21 [Example 53, 1-(5-(7-acetamido-1-ethyl-2-oxo-1,2-dihydro-1,6-naphthyridin-3-yl)-4-bromo-2-fluorophenyl)-3-phenylurea] | < 10 nM | 100 to 1000 nM | < 10 nM | < 10 nM | 10 to 100 nM | 10 to 100 nM | < 10 nM | 10 to 100 nM |  | 

Further lines, with some results ahead:

IC50 [1] | IC50 [3] | IC50 [4] | IC50 [5] | IC50 [6] | IC50 [7] | IC50 [8] | IC50 [9] | IC50 [10] | Compound | IC50 [2]
 |  |  | < 10 nM |  | 10 to 100 nM | < 10 nM | 10 to 100 nM | 10 to 100 nM | CC(=O)Nc1cc2c(cn1)cc(-c1cc(NC(=O)Nc3cccc(F)c3)c(F)cc1Cl)c(=O)n2C(C)C [Example 99, N-(3-(2-chloro-4-fluoro-5-(3-(3-fluorophenyl)ureido)phenyl)-1-isopropyl-2-oxo-1,2-dihydro-1,6-naphthyridin-7-yl)acetamide] | 
 | 10 to 100 nM |  | 10 to 100 nM |  | 10 to 100 nM | 10 to 100 nM | 10 to 100 nM | 10 to 100 nM | Cc1cc(F)c(NC(=O)Nc2ccccc2)cc1-c1cc2cnc(NC(=O)N3CCC3)cc2n(C(C)C)c1=O [Example 109, N-(3-(4-fluoro-2-methyl-5-(3-phenylureido)phenyl)-1-isopropyl-2-oxo-1,2-dihydro-1,6-naphthyridin-7-yl)azetidine-1-carboxamide] | 
 |  |  | < 10 nM |  | 10 to 100 nM | < 10 nM | 10 to 100 nM | < 10 nM | CCn1c(=O)c(-c2cc(NC(=O)Nc3ccccc3)c(F)cc2C)cc2cnc(Nc3cnn(C)c3)cc21 [Example 115, 1-(5-(1-ethyl-7-((1-methyl-1H-pyrazol-4-yl)amino)-2-oxo-1,2-dihydro-1,6-naphthyridin-3-yl)-2-fluoro-4-methylphenyl)-3-phenylurea] | 
